According to PubChem BioAssay (NCI):
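In this assay, cells in 96-well plates receive the compound at five concentrations for 48 hours. Endpoints are linearly interpolated between the surrounding concentrations. At the GI50, growth is halved. TGI marks complete inhibition of growth.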

Legend:
Assay in all cases: NCI anticancer screen, dose series, 48 h
OVCAR-4 ovarian = tested on: OVCAR-4 ovarian
SK-MEL-5 melanoma = tested on: SK-MEL-5 melanoma
U251 CNS = tested on: U251 CNS
CAKI-1 renal = tested on: CAKI-1 renal
COLO 205 colon = tested on: COLO 205 colon
KM12 colon = tested on: KM12 colon
EKVX NSCLC = tested on: EKVX NSCLC
SW-620 colon = tested on: SW-620 colon
LOX IMVI melanoma = tested on: LOX IMVI melanoma
DU-145 prostate = tested on: DU-145 prostate

SMILES	GI50 (OVCAR-4 ovarian)	TGI (OVCAR-4 ovarian)	GI50 (SK-MEL-5 melanoma)	TGI (SK-MEL-5 melanoma)	GI50 (U251 CNS)	TGI (U251 CNS)	GI50 (CAKI-1 renal)	TGI (CAKI-1 renal)	GI50 (COLO 205 colon)	TGI (COLO 205 colon)	GI50 (KM12 colon)	TGI (KM12 colon)	GI50 (EKVX NSCLC)	TGI (EKVX NSCLC)	GI50 (SW-620 colon)	TGI (SW-620 colon)	GI50 (LOX IMVI melanoma)	TGI (LOX IMVI melanoma)	TGI (DU-145 prostate)	GI50 (DU-145 prostate)
CC(C)(C)C([O-])=C1C(=O)c2ccccc2C1=O.CC(C)(C)C([O-])=C1C(=O)c2ccccc2C1=O.CC[O-].CC[O-].[Ti+4]	58.7 µM	> 100 µM	42.2 µM	95.6 µM	41.6 µM	> 100 µM	28 µM	81.7 µM	22.7 µM	44.7 µM	37.6 µM	> 100 µM	21.7 µM	63.9 µM	25.5 µM	> 100 µM	40.4 µM	> 100 µM	–	–
Cn1cc(NC(=O)c2cc(NC(=O)CCCCCC(=O)Nc3cc(C(=O)Nc4cc(C(=O)NCCC(=N)N)n(C)c4)n(C)c3)cn2C)cc1C(=O)NCCC(=N)N	–	> 100 µM	–	> 100 µM	–	> 100 µM	–	> 100 µM	–	> 100 µM	–	> 100 µM	–	> 100 µM	–	> 100 µM	–	> 100 µM	–	–
Cc1ccc(S(=O)(=O)ON/N=C2/C3OC3[C@@H]3CCCC[C@H]23)cc1 (stereo partly specified)	–	> 100 µM	–	–	–	> 100 µM	–	> 100 µM	–	> 100 µM	–	> 100 µM	–	> 100 µM	–	> 100 µM	–	–	–	–
COC1C(=O)CCC2(CO2)C1(O)C1(C)OC1CCC(C)C (stereo unspecified)	–	> 100 µM	–	> 100 µM	–	> 100 µM	–	> 100 µM	–	> 100 µM	–	> 100 µM	–	> 100 µM	–	> 100 µM	–	–	> 100 µM	–
Cn1nnnc1[N-]Cc1ccccc1.[Au+].c1ccc([PH+](c2ccccc2)c2ccccc2)cc1	1.99 µM	5.42 µM	1.6 µM	3.6 µM	3.41 µM	11.8 µM	2.29 µM	4.99 µM	2.29 µM	5.81 µM	11.1 µM	38 µM	4.08 µM	5.78 µM	2.19 µM	4.92 µM	2.53 µM	8.55 µM	–	–
CCc1cccc(C)c1NC(=O)CC1Sc2ccccc2NC1=O (stereo unspecified)	–	> 100 µM	–	> 100 µM	–	> 100 µM	–	> 100 µM	–	> 100 µM	–	> 100 µM	–	> 100 µM	–	> 100 µM	–	> 100 µM	–	–
CCCN(CCC)c1c([N+](=O)[O-])cc(S(N)(=O)=O)cc1[N+](=O)[O-]	–	26.9 µM	–	33.5 µM	–	26.9 µM	–	26.4 µM	–	43.1 µM	–	34.3 µM	–	37.5 µM	–	36 µM	–	31.6 µM	–	–
COc1ccc(/C=[N+](\[O-])[C@H](COCc2ccccc2)c2ccccc2)cc1	–	–	–	–	–	> 100 µM	–	–	–	> 100 µM	–	> 100 µM	–	> 100 µM	–	> 100 µM	–	> 100 µM	–	–
Cc1ccc(S(=O)(=O)NCCN2c3nc4ccccc4cc3Sc3cc4ccccc4nc32)cc1	–	–	5.59 µM	> 100 µM	4.93 µM	> 89.9 µM	13.8 µM	> 71.7 µM	> 100 µM	> 100 µM	> 100 µM	> 100 µM	> 77 µM	> 100 µM	> 100 µM	> 100 µM	> 81.7 µM	> 100 µM	> 100 µM	> 100 µM
CC1=C2N3C[C@@H](n4c(=O)n(C)c(=O)n43)C23CCC1n1c(=O)n(C)c(=O)n13	–	> 100 µM	–	> 100 µM	–	–	–	> 100 µM	–	> 100 µM	–	> 100 µM	–	> 100 µM	–	54.8 µM	–	> 100 µM	–	–
COC(=O)/C(=N/NC(C)(C)C)C(C(=O)C=C(C)C)C(=O)C(=O)Nc1ccc(Cl)cc1C (stereo unspecified)	–	> 100 µM	–	> 100 µM	–	> 100 µM	–	> 100 µM	–	> 100 µM	–	> 100 µM	–	> 100 µM	–	> 100 µM	–	–	–	–
CCCCCCCCCCCC(=O)C1=C(O)C(O)CCC1=O (stereo unspecified)	–	90.8 µM	–	–	–	55.5 µM	–	70.6 µM	–	28.9 µM	–	43.2 µM	–	34.1 µM	–	60 µM	–	28.2 µM	–	–
O=C(O)c1[nH]c(C(=O)O)c(CC(F)(F)C(F)(F)C(F)(F)F)c1CC(F)(F)C(F)(F)C(F)(F)F	–	> 100 µM	–	> 100 µM	–	> 100 µM	–	> 100 µM	–	> 100 µM	–	> 100 µM	–	> 100 µM	–	> 100 µM	–	> 100 µM	–	–
O=C(N=Nc1c(O)[nH]c2ccccc12)c1ccccc1O	–	> 100 µM	–	–	–	72.2 µM	–	–	–	> 100 µM	–	> 100 µM	–	> 100 µM	–	> 100 µM	–	> 100 µM	–	–
NC(N)=N/N=C/c1c(-c2cc(Cl)sc2Cl)nc2n1CCS2	–	–	10.1 µM	18.2 µM	7.61 µM	14.4 µM	12.8 µM	23.2 µM	–	–	8.33 µM	16.1 µM	9.21 µM	18.1 µM	10.5 µM	20.5 µM	8.33 µM	15.8 µM	–	–
c1ccc2c(NCCCCCCCCNc3c4ccccc4nc4ccccc34)c3ccccc3nc2c1	–	2.41 µM	–	2.71 µM	–	2.09 µM	–	2.18 µM	–	1.61 µM	–	1.59 µM	–	2.8 µM	–	1.71 µM	–	–	1.94 µM	–
CC(SC1=CC(=O)c2c(O)ccc(O)c2C1=O)C(=O)O (stereo unspecified)	–	35 µM	–	> 100 µM	–	> 60.1 µM	–	72.2 µM	–	> 60.3 µM	–	> 100 µM	–	> 100 µM	–	> 55.6 µM	–	> 57.7 µM	–	–
[Cl][Sn]([c]1ccccc1)[c]1ccccc1	15.2 µM	29.8 µM	3.35 µM	11.2 µM	10.3 µM	23.2 µM	2.54 µM	8.98 µM	7.45 µM	38.2 µM	12.4 µM	18 µM	6.57 µM	15.5 µM	1.95 µM	4.49 µM	3.81 µM	13.5 µM	–	–
Cc1cc2occ(C)c(=O)c2c2c1OC(C)(C)S2	–	> 100 µM	–	> 100 µM	–	> 100 µM	–	–	–	> 100 µM	–	> 100 µM	–	> 100 µM	–	> 100 µM	–	> 100 µM	–	–
